± gives the expanded uncertainty stated by the source.
Details: Crystal 2; AC calorimetry

Triple point temperature: 177.5 ± 0.1 K
SMILES: O=P([O-])(O)P(=O)([O-])O.[NH4+].[NH4+] [diammonium hypodiphosphate]

Reference: the NIST ThermoML archive (doi:10.1016/j.tca.2011.09.016)
